In patent US8492374B2, “Azaazulene compounds” (Industrial Technology Research Institute, priority 2009, dated 2013) one finds IC50 and inhibition data, which are given here for 17 compounds.

The subject of assay [1] is MV4-11 (FLT3-ITD) cell line. The assay is described as follows: In vitro cell activity assay (MTT cell viability, 72 hours). To be noted: Homo sapiens, 72 hours at 37° C., 10,000 cells per well, read-out: IC50 against MV4-11. It counts as cell-based. The procedure: Human MV4-11 (FLT3-ITD) cell line was obtained from American Tissue Culture Collection (ATCC number: CRL-9591). The cell line was cultured with RPMI 1640 containing 10% fetal bovine serum, 1 mmol/L sodium pyruvate and 10 mmol/L HEPES (pH 7.4). The cell was grown and maintained in a humidified atmosphere at 37° C. and 5% carbon dioxide.
MV4-11 cell was plated in 96-well microtiter plates (10,000 cells per well) and serial dilutions of indicated compounds were added. At the end of the incubation period (72 hours at 37° C.), cell viability was determined by a tetrazolium dye, MTT (3-(4,5-dimethylthiazol-2-yl)-2,5-diphenyl tetrazolium bromide) (Promega, Madison, Wis.). The formazan crystals were dissolved by DMSO, and the absorbance at a wavelength of 600 nm was recorded using an ELISA plate reader. IC50 values were calculated using nonlinear regression and defined as the concentration needed for a 50% reduction in absorbance of treated versus untreated control cells.

For a further assay, the target named is T1, FLT-3 kinase (Homo sapiens, UniProt P36888).
T1 construct: human FLT-3 (Arg571-Ser993); GST (N); purchased Cell Signaling Technology HTScan FLT-3 Kinase Assay Kit; host or cells: baculovirus expression system
T1 sequence (P36888 571-993): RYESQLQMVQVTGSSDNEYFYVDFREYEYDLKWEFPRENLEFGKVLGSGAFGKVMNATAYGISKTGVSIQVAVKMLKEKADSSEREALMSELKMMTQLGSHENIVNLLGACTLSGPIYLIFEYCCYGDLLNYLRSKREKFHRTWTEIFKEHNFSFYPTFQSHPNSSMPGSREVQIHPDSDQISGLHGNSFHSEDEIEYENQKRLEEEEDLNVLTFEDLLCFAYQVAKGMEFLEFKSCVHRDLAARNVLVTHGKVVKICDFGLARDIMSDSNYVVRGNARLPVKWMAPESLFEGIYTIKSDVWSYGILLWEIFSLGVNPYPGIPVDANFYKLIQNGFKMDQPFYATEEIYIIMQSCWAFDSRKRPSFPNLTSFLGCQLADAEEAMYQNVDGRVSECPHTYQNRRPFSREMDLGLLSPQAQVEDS
The assay is described as follows: FLT-3 kinase DELFIA assay (HTScan FLT-3 Kinase Assay Kit). It counts as biochemical. The settings on record: 20 uM ATP; for inhibition at 0.1 µM: 0.1 uM compound; for inhibition at 1 µM: 1 uM compound. On the procedure:
Azaazulene Compounds of this invention were treated for their efficacy in inhibiting activities of FLT-3, c-KIT and KDR kinases by biochemical DELFIA (Dissociation Enhanced Lanthanide FIA) assays according to the procedure described below. The assays were conducted by, Division of Cell Engineering, Biomedical Engineering Research Laboratories, Industrial Technology Research Institute, Bldg. 53, 195, sec. 4, Chung Hsing Rd. Chutung, Hsinchu, Taiwan 310, R.O.C.
The FLT-3 assay was conducted following the protocol described in Protocol for HTScang FLT-3 Kinase Assay Kit (Cell Signaling Technology®).

The term IC50 denotes the concentration at which inhibition is half-maximal. By inhibition is commonly meant the relative decrease from the control value, in per cent. High values mean a response far below the control, low ones a response near the control.

Regarding `O=c1[nH]c2cccccc-2c1-c1nc2cc(N3CCCN(c4ccncc4)CC3)ccc2[nH]1` [Compound B93], the IC50 in assay [1] amounted to 129 nM. At FLT-3 kinase, this compound showed an inhibition at 0.1 µM of 44.2% and an inhibition at 1 µM of 89.4%.
In the same order, the values of `O=c1[nH]c2cccccc-2c1-c1nc2cc(N3CCCN(c4cccc(Cl)n4)CC3)ccc2[nH]1` [Compound B96] are 1000 to 5000 nM, 10.9% and 35.7%.
The corresponding values for `O=c1[nH]c2cccccc-2c1-c1nc2cc(N3CCCN(c4ncccn4)CC3)ccc2[nH]1` [Compound B98] are 418 nM, 17.8% and 69.5%.
In the same order, the values of `O=c1[nH]c2cccccc-2c1-c1nc2cc(N3CCCN(c4cnccn4)CC3)ccc2[nH]1` [Compound B99] are 600 nM, 17% and 51.8%.
In the case of `Cc1ccc(N2CCCN(c3ccc4[nH]c(-c5c6cccccc-6[nH]c5=O)nc4c3)CC2)nn1` [Compound B100], the IC50 in assay [1] lay within 1000 to 5000 nM. Besides, at FLT-3 kinase, the inhibition at 0.1 µM turned out to be 9.1% and at 1 µM the inhibition was 20.2%.
Consider `CN(C)C1CCN(c2ccc3[nH]c(-c4c5cccccc-5[nH]c4=O)nc3c2)CC1` [Compound B101], for which, in assay [1], the IC50 came out at 39.7 nM. At FLT-3 kinase, this compound yielded an inhibition at 0.1 µM of 46.8% and an inhibition at 1 µM of 90.7%.
With `O=c1[nH]c2cccccc-2c1-c1nc2cc(N3CCC(N4CCCCC4)CC3)ccc2[nH]1` [Compound B102], in assay [1], the IC50 was 115 nM. At FLT-3 kinase, this compound registered an inhibition at 0.1 µM of 22.8% and an inhibition at 1 µM of 67.8%.
`O=c1[nH]c2cccccc-2c1-c1nc2cc(N3CCC(N4CCOCC4)CC3)ccc2[nH]1` [Compound B103]: the IC50 in assay [1] came to 42 nM. At FLT-3 kinase, the inhibition at 0.1 µM was 36.5% and the inhibition at 1 µM was found to be 87.4%.
Take `O=c1[nH]c2cccccc-2c1-c1nc2cc(N3CCC(N4CCCC4)CC3)ccc2[nH]1` [Compound B104]: the IC50 in assay [1] was determined as 69.1 nM. At FLT-3 kinase, the inhibition at 0.1 µM was determined as 28.3% and the inhibition at 1 µM is 84.1%.
In the same order, the values of `CN1CCN(C2CCN(c3ccc4[nH]c(-c5c6cccccc-6[nH]c5=O)nc4c3)CC2)CC1` [Compound B105] are 177 nM, 38.7% and 86%.
The corresponding values for `CCC1CCN(c2ccc3[nH]c(-c4c5cccccc-5[nH]c4=O)nc3c2)CC1` [Compound B106] are 315 nM, 24.2% and 76.2%.
As to `NC(=O)C1CCN(c2ccc3[nH]c(-c4c5cccccc-5[nH]c4=O)nc3c2)CC1` [Compound B108], in assay [1], the IC50 amounted to 89.1 nM. In addition, on FLT-3 kinase, the inhibition at 0.1 µM was 16% and the inhibition at 1 µM is 86.5%.
As for `CCOCC1CCN(c2ccc3[nH]c(-c4c5cccccc-5[nH]c4=O)nc3c2)CC1` [Compound B109], in assay [1], the IC50 is about 1000 nM. At FLT-3 kinase, this compound returned an inhibition at 0.1 µM of 17.3% and an inhibition at 1 µM of 35.2%.
The corresponding values for `O=c1[nH]c2cccccc-2c1-c1nc2cc(N3CCOCC3)ccc2[nH]1` [Compound B111] are 169 nM, 24.5% and 75%.
For `CN1CCN(S(=O)(=O)c2ccc3[nH]c(-c4c5cccccc-5[nH]c4=O)nc3c2)CC1` [Compound B112], the IC50 in assay [1] lay within 1000 to 5000 nM. At FLT-3 kinase, this compound displayed an inhibition at 0.1 µM of 9.5% and an inhibition at 1 µM of 21.3%.
In the same order, the values of `CN1CCCN(S(=O)(=O)c2ccc3[nH]c(-c4c5cccccc-5[nH]c4=O)nc3c2)CC1` [Compound B113] are 100 to 500 nM, 14.8% and 42%.
In the same order, the values of `O=C(c1ccccc1)c1ccc2[nH]c(-c3c4cccccc-4[nH]c3=O)nc2c1` [Compound B114] are 1000 to 5000 nM, 10% and 16.3%.
